Tests used:
in vivo = settings: CD1, mouse, po, 10 mg/kg, AUClast
P. berghei ANKA = assay: Oral curative activity against P. berghei ANKA; format: in vivo, P. berghei in mice

Clc1ccc2c(NCC34CCCN3CCC4)ccnc2c1 [MG3, 7-Chloro-N-((hexahydro-1H-pyrrolizin-7a-yl)methyl)quinolin-4-amine]
AUC(0-t) (in vivo): 1030 ng·h/mL | prolonged mice survival compared to CQ, amodiaquine or artesunate (P. berghei ANKA; 30 mg/kg for 3 times): approximately 50% | curative activity (P. berghei ANKA; 30 mg/kg for 3 times, P. berghei-infected mice): not curative | % Suppression of parasitaemia (on day 4 post infection) (P. berghei ANKA; oral dose 3 x 30 mg/kg): 100% | Average survival (days) after infection (P. berghei ANKA; oral dose 3 x 30 mg/kg, individual values in brackets): 22 (17, 23, 23, 24, 24) days

— publication PMC10216263, “Favorable Preclinical Pharmacological Profile of a Novel Antimalarial Pyrrolizidinylmethyl Derivative of 4-amino-7-chloroquinoline with Potent In Vitro and In Vivo Activities” (Biomolecules, 2023)
